# Source: patent US20220362299A1, “ENGINEERED NATURAL KILLER CELLS AND METHODS FOR USING THE SAME IN IMMUNOTHERAPY AND AUTOPHAGY INHIBITON TECHNIQUES” (Purdue Research Foundation, priority 2019, published 2022)
# What was measured:
# GBM43 cells [1] = test: Surface expression of NKG2DL, CD73 and GD2 on GBM43 cells after CQ (flow cytometry); assay type: cell-based, human; details: 24 h
# Protocol: In addition to the increase in NK cell intratumoral infiltration, NK2G2DL expression (MFI and percentage) on GBM43 cells after 24 hours of treatment with various concentrations of CQ was evaluated.
# GBM43 cells [2] = test: Subcutaneous GBM43 xenograft model; assay type: in vivo, NSG mice
# Protocol: Subcutaneous GBM xenografts were established by inoculating NSG mice with 3×10^6 GBM43 cells in the right flank. Ten days later, when tumors reached a volume of about 80 mm^3, mice were randomly assigned to 5 groups (n=4/group) and treated according to one of the following protocols: (1) PBS only; (2) intravenous (IV) injection of 5×10^6 pNK cells alone; (3) intravenous (IV) injection of 5×10^6 CD73.mCAR-pNK cells alone (Construct 1); (4) intraperitoneal (IP) injection of CQ (50 mg/kg) alone. NK cells were administered once a week for three weeks. The mice receiving adoptive NK cells therapy (groups 2 and 3) also received IL-15 (0.5 μg/mice) by IP injection every 3-4 days. Tumor growth was followed by caliper measurements and tumor volumes were calculated using the formula: V=0.52×L×W×H as described above. Body weights of the mice were recorded throughout the treatment. At the end of the therapy, the mice were sacrificed and tumors were harvested for histologic (IHC/IF) analyses.
# Immunohistochemistry (IHC) and immunofluorescence (IF) staining were carried out at the Histology Research Laboratory at the Purdue University College of Veterinary Medicine (West Lafayette, Ind.). Briefly, the tumors were fixed in 10% neutral-buffered formalin, embedded in paraffin, and cut into 3-5 μm sections.
# CCL5 and CXCL10 expression in the tumors were detected through the staining using human CCL5/RANTES antibody and CXCL10 antibody respectively. The staining was evaluated based on the intensity (weak=1, moderate=2, and high=3) of chemokine immunostaining and the density (0%=0, 1-40%=1, 41-75%=2, >76%=3) of positive tumor cells. The final score of each sample was multiplied by the intensity and density.
# For subcutaneous GBM43 xenografts, NK cell infiltration was investigated by IF staining performed with the following stains: Protein L (Alexa 647, far red), NKp46 (Alexa 488, green) and DAPI nuclear counterstain. CCL5 and CXCL10 expression were evaluated by IHC staining as described above. CD73 expression in the tumors was detected through the staining using human CD73 antibody.
# The treatment schedule is summarized in FIG. 17, subpart A. Briefly, 3×10^6 GBM43 cells were subcutaneously (SC) implanted into the right flank of the mice (Day 0). 10 days later (Day 10), mice in the CQ group were intraperitoneally (IP) injected with CQ at 50 mg/kg for 3 weeks, once a week. One day later (Day 11), the mice in pNK and CD73.mCAR-pNK groups were treated with 5×10^6 adoptively-transferred pNK or CD73.mCAR-pNK cells intravenously (IV), once a week for 3 weeks. Starting on the day of the first injection of NK cells, all mice received 0.5 μg of IL-15 once every 3-4 days IP.
substance,measurement,setting,value
Chloroquine diphosphate salt [CQ],expression of CD73 (MFI) on GBM43 cells,GBM43 cells [1]; CQ 6.25 μM,~70 % of control
same,expression of GD2 (MFI) on GBM43 cells,GBM43 cells [1]; CQ 50 μM or higher,decreased
same,NKG2DL expression (% and MFI) on GBM43 cells,GBM43 cells [1]; CQ at various concentrations,increased significantly
same,percentage expression (%) of GD2 on GBM43 cells,"GBM43 cells [1]; CQ up to 100 μM then constant, control cells ~58%",~46%
same,mean tumor volume,"GBM43 cells [2]; NK cells 5×10^6 IV once a week for 3 weeks, CQ 50 mg/kg IP, PBS group 1475",953.25 mm^3
same,CCL5 in tumor tissues (IHC),"GBM43 cells [2]; mouse, in vivo",significantly higher presence
same,CXCL10 in tumor tissues (IHC),"GBM43 cells [2]; mouse, in vivo",significantly higher presence
same,mean tumor weight,"GBM43 cells [2]; necropsy day 28 post-start of treatment, PBS group 2.31",1.16 g
same,expression of CD73 on tumors (IHC),GBM43 cells [2]; vs other treatment groups,lower level
